Test results reported in patent US20050208549A1, “Testing endosymbiont cellular organelles and compounds identifiable therewith” (priority 2000, published 2005).

Tests used:
[1] = system: peripheral blood mononuclear cells (PBMCs); assay: NASBA ratio of mitochondrial RNA to chromosome-encoded RNA in cultured PBMCs; assay type: cell-based, human (healthy blood donor)
Method: In Table 1, the primers and probes used in the examples are summarized. Standard NASBA nucleic acid amplification reactions were performed in a 20 μl reaction volume and contained: 40 mM Tris-pH 8.5, 70 mM KCl, 12 mM MgCl2, 5 mM dithiothreitol, 1 mM dNTPs (each), 2 mM rNTPs (each), 0.2 μM primer (each), 0.05 μM molecular beacon, 375 mM sorbitol, 0.105 μg/μl bovine serum albumin, 6.4 units AMV RT, 32 units T7 RNA polymerase, 0.08 units RNAse H and input nucleic acid. The complete mixture, except the enzymes, sorbitol and/or bovine serum albumin was, prior to adding the enzyme mixture, heated to 65° C. for two minutes in order to denature any secondary structure in the RNA and to allow the primers to anneal. After cooling the mixture to 41° C., the enzymes were added. The amplification took place at 41° C. for 90 minutes in a fluorimeter (CytoFluor 2000) and the fluorescent signal was measured every minute (using the filter set 530/25 nm and 485/30 nm). For amplification of DNA target sequences, the 65° C. denaturation step was replaced with a 95° C. denaturation step for two to five minutes.
To achieve quantification, a dilution series of target sequences for a particular primer set was amplified and the time points at which the reactions became positive (the time to positivity, TTP) were plotted against the input amounts of nucleic acid. This way a calibration curve was created that could be used to read TTP values of reactions with unknown amounts of input and deduce the input amount.
Cells (fibroblasts and PBMCs) were cultured under standard conditions in standard media known to persons skilled in the art with the addition of drugs or putative toxic or stimulating compounds as defined in the examples. […] A small aliquot of the isolated nucleic acid was analyzed on an agarose gel and the remainder stored at −80° C. until further analysis. […]

PBMC of patients = assay: Mitochondrial DNA content per PBMC of HIV-1 infected patients on antiviral therapy (duplex NASBA); assay type: in vivo, human (HIV-1 infected patients); settings: for Mitochondrial DNA content in PBMC (per cell), Median / % decrease in mitochondrial DNA content of PBMC: patients
Method: Different ratios of mitochondrial and chromosomal DNA targets in plasmids were analyzed in this example: 2×10^3 U1a DNA/8×10^3 Mt DNA, 2×10^3 U1a DNA/2×10^4 MtDNA, 2×10^3 U1a DNA/4×10^4 Mt DNA, 2×10^3 U1a DNA/10^5 Mt DNA, 2×10^3 U1a DNA/2×10^5 Mt DNA, 2×10^3 U1a DNA/4×10^5 Mt DNA, and 2×10^3 U1a DNA/8×10^5 Mt DNA molecules were included. A reaction mix was prepared similar to that of Example 12, except that primers and beacons differed in order to amplify chromosomal and mitochondrial DNA in one tube. The reaction mix (duplex-mix) contained two sets of primers and beacons: SnrpD P1 and SnrpD2 P2 (first primer set, each 0.2 μM), and MtD P1—2 and MtD P2—2 (second primer set, each 0.3 μM) with beacons SnrpD mb—2 (FAM-labeled) and MtD mb—3 (ROX-labeled) (each 0.04 μM). See Table 1 for primer and, probe sequences. Restriction enzyme digestion, amplification, and detection were performed as in Example 12. Filter sets of the fluorimeter (CytoFluor 2000 or EasyQ analyzer) were adapted to simultaneously measure the FAM and the ROX-label (485/20 and 530/25 for FAM; 590/20 and 645/40 for ROX). In a duplex reaction with two competing amplifications, the ratio of the slope of the curves of fluorescence in time is proportional to the ratio of the amount of molecules of each amplified species. The relation between the ratio of the slopes of FAM and ROX signal is linear to the ratio of mitochondrial DNA and chromosomal DNA in the input.
Forty-eight HIV-1 infected patients were randomized for antiviral therapy with either AZT, AZT+ddI, or AZT+ddC. Blood was drawn at week 0, 4, 24, and 48 after the start of therapy. The blood was used to prepare peripheral blood mononuclear cells (PBMC) by Ficoll-Isopaque purification. PBMC were viably frozen in medium plus 5% DMSO and stored in liquid nitrogen until use.
Nucleic acids were extracted from 10^5 PBMC using the Boom method. Nucleic acids equivalent of 1,000 PBMC were used as input for the one-tube real-time duplex-NASBA that measures both mitochondrial and chromosomal DNA as described in Example 17. The result of this assay is expressed as the mitochondrial DNA content per cell (i.e., PBMC) of the patient sample.
The mtDNA content of the PBMC of the patients at start of therapy was compared to the mtDNA content at week 4, 24, and 48 and analyzed for statistically significant changes (see Table 3 and FIGS. 20 and 21).

Fibroblasts = assay: Lactate-pyruvate ratio in fibroblasts cultured with ddC; assay type: cell-based
Method: Fibroblasts were cultured in the presence of the anti-retroviral drug ddC. (30 μM) for four weeks. After that period, the cell culture continued in the presence, but also in the absence, of ddC for another six weeks. During this period of culture, part of the cells were harvested and analyzed for the ratio of lactate-pyruvate using standard methods known by persons skilled in the art.

[2] = cited from earlier work

Nc1ccn([C@H]2CC[C@@H](CO)O2)c(=O)n1 [ddC]
decline in PBMCs of mitochondrial RNA per cell ([1]; five-day culture period, highest concentration of ddC used, FIG. 10): do not clearly show a decline | change in the mitochondrial DNA content of patients' PBMC under therapy (PBMC of patients; human, in vivo): significant decline | culture time after which a significant increase of lactate pyruvate ratio can be observed (Fibroblasts; ddC 30 μM): four | lactate-pyruvate ratio in continued culture in the absence of ddC (Fibroblasts; ddC 30 μM for four weeks, then without ddC): drops to normal levels | lactate pyruvate ratio in the presence of ddC (Fibroblasts; ddC 30 μM, FIG. 17): increases | lactate-pyruvate ratio during continued culture in the presence of ddC (Fibroblasts; ddC 30 μM, after week four, another six weeks): remains high

Cc1cn([C@H]2C[C@H](N=[N+]=[N-])[C@@H](CO)O2)c(=O)[nH]c1=O [AZT]
change in ratio of mitochondrial RNA to chromosome-encoded RNA ([1]; culture period of five days, 6 μM and 60 μM): no measurable change | Mitochondrial DNA content in PBMC (per cell), Median (PBMC of patients; week 0 (start of therapy)): 196 | % decrease in mitochondrial DNA content of PBMC (PBMC of patients; week 4 compared to start of therapy): 11% | Mitochondrial DNA content in PBMC (per cell), Median (PBMC of patients; week 4 of therapy): 157 | % decrease in mitochondrial DNA content of PBMC (PBMC of patients; week 24 compared to start of therapy): 1% | Mitochondrial DNA content in PBMC (per cell), Median (PBMC of patients; week 24 of therapy): 182 | % decrease in mitochondrial DNA content of PBMC (PBMC of patients; week 48 compared to start of therapy): 5% | Mitochondrial DNA content in PBMC (per cell), Median (PBMC of patients; week 48 of therapy): 155 | Rate (%) of mitochondrial toxicity, affected organ Heart ([2]; Dilated cardio-myopathy): Rare | Rate (%) of mitochondrial toxicity, affected organ Muscle ([2]; Fatigue, myalgia, proximal weakness, wasting, Creatine kinase ↑): 17%
